Test results taken from article PMC6994103 (PLoS Neglected Tropical Diseases, 2020).
Several values for one entry are separate records, joined by “and”; a condition that tells them apart may be missing. Equal values may be shown once.

Test system: T. cruzi epimastigotes Y strain
Experiment: Synergism BZL with LTD-CPH-CFZ in epimastigotes, Y strain (CompuSyn)
Assay type: cell-based, Trypanosoma cruzi
Method: Parasites´ growth was evaluated at different concentrations of BZL, CV and CV structural analogues, and parasite proliferation was determined after 48 h. […] Growth was determined by counting in a Neubauer chamber and viability assays by using “Cell Titer 96 Aqueous One Solution Cell Proliferation Assay (MTS)” (Promega, Madison, WI, USA) according to the manufacturer’s instructions. Amastigotes were fixed with methanol, stained and mounted with Vectashield with DAPI (Vector Laboratories, Burlingame, CA, USA), and then the non-lysed cells were counted by using fluorescence microscopy. Calculations were performed using CompuSyn software (http://combosyn.com) which is based on the median-effect equation [48] and its extension, the combination index.

With `O=C(Cn1ccnc1[N+](=O)[O-])NCc1ccccc1` [Benznidazole] the “DRI BZL” value (BZL 0.10 µM + LTD-CPH-CFZ 3.40 µM (1/25 IC50)) was 16.63 ± 2.78, the “DRI BZL” value (BZL 0.10 µM + LTD-CPH-CFZ 8.50 µM (1/10 IC50)) was 73.67 ± 4.95 and the “DRI BZL” value (BZL 0.10 µM + LTD-CPH-CFZ 17.00 µM (1/5 IC50)) was 374.17 ± 32.50. For the same compound, the “DRI BZL” value (BZL 0.10 µM + LTD-CPH-CFZ 42.50 µM (1/2 IC50)) was 923.66 ± 175.14, the “DRI BZL” value (BZL 1.00 µM + LTD-CPH-CFZ 3.40 µM (1/25 IC50)) was 5.12 ± 0.06 and the “DRI BZL” value (BZL 1.00 µM + LTD-CPH-CFZ 8.50 µM (1/10 IC50)) was 13.27 ± 2.61. The “DRI BZL” value (BZL 1.00 µM + LTD-CPH-CFZ 17.00 µM (1/5 IC50), listed as BZL) was 54 and 53.83 ± 6.79, the “DRI BZL” value (BZL 1.00 µM + LTD-CPH-CFZ 42.50 µM (1/2 IC50)) was 157.01 ± 24.63 and the “DRI BZL” value (BZL 5.00 µM + LTD-CPH-CFZ 3.40 µM (1/25 IC50)) was 2.45 ± 0.40. The “DRI BZL” value (BZL 5.00 µM + LTD-CPH-CFZ 8.50 µM (1/10 IC50)) was 5.48 ± 0.48, the “DRI BZL” value (BZL 5.00 µM + LTD-CPH-CFZ 17.00 µM (1/5 IC50)) was 10.31 ± 1.72 and the “DRI BZL” value (BZL 5.00 µM + LTD-CPH-CFZ 42.50 µM (1/2 IC50)) was 63.09 ± 8.25. For the same compound, the “DRI BZL” value (BZL 10.00 µM + LTD-CPH-CFZ 3.40 µM (1/25 IC50)) was 3.89 ± 0.11, the “DRI BZL” value (BZL 10.00 µM + LTD-CPH-CFZ 8.50 µM (1/10 IC50)) was 5.45 ± 0.19 and the “DRI BZL” value (BZL 10.00 µM + LTD-CPH-CFZ 17.00 µM (1/5 IC50)) was 10.20 ± 0.87. For the same compound, the “DRI BZL” value (BZL 10.00 µM + LTD-CPH-CFZ 42.50 µM (1/2 IC50)) was 45.77 ± 3.03, the “DRI BZL” value (BZL 20.00 µM + LTD-CPH-CFZ 3.40 µM (1/25 IC50)) was 5.88 ± 0.56 and the “DRI BZL” value (BZL 20.00 µM + LTD-CPH-CFZ 8.50 µM (1/10 IC50)) was 7.44 ± 0.23. For the same compound, the “DRI BZL” value (BZL 20.00 µM + LTD-CPH-CFZ 17.00 µM (1/5 IC50)) was 10.94 ± 1.56, the “DRI BZL” value (BZL 20.00 µM + LTD-CPH-CFZ 42.50 µM (1/2 IC50)) was 68.51 ± 13.29 and the “Dose BZL alone” value (same effect (Fa 0.112) as BZL 0.10 µM + LTD-CPH-CFZ 3.40 µM) was 1.66 ± 0.28 µM. For the same compound, the “Dose BZL alone” value (same effect (Fa 0.257) as BZL 1.00 µM + LTD-CPH-CFZ 3.40 µM) was 5.12 ± 0.06 µM, the “Dose BZL alone” value (same effect (Fa 0.324) as BZL 0.10 µM + LTD-CPH-CFZ 8.50 µM) was 7.37 ± 0.49 µM and the “Dose BZL alone” value (same effect (Fa 0.430) as BZL 5.00 µM + LTD-CPH-CFZ 3.40 µM) was 12.27 ± 2.01 µM. For the same compound, the “Dose BZL alone” value (same effect (Fa 0.447) as BZL 1.00 µM + LTD-CPH-CFZ 8.50 µM) was 13.27 ± 2.61 µM, the “Dose BZL alone” value (same effect (Fa 0.609) as BZL 5.00 µM + LTD-CPH-CFZ 8.50 µM) was 27.38 ± 2.41 µM and the “Dose BZL alone” value (same effect (Fa 0.673) as BZL 0.10 µM + LTD-CPH-CFZ 17.00 µM) was 37.42 ± 3.25 µM. The “Dose BZL alone” value (same effect (Fa 0.682) as BZL 10.00 µM + LTD-CPH-CFZ 3.40 µM) was 38.95 ± 1.06 µM, the “Dose BZL alone” value (same effect (Fa 0.732) as BZL 5.00 µM + LTD-CPH-CFZ 17.00 µM) was 51.57 ± 8.60 µM and the “Dose BZL alone” value (same effect (Fa 0.740) as BZL 1.00 µM + LTD-CPH-CFZ 17.00 µM) was 53.83 ± 6.79 µM. For the same compound, the “Dose BZL alone” value (same effect (Fa 0.743) as BZL 10.00 µM + LTD-CPH-CFZ 8.50 µM) was 54.45 ± 1.86 µM, the “Dose BZL alone” value (same effect (Fa 0.821) as BZL 0.10 µM + LTD-CPH-CFZ 42.50 µM) was 92.37 ± 17.51 µM and the “Dose BZL alone” value (same effect (Fa 0.835) as BZL 10.00 µM + LTD-CPH-CFZ 17.00 µM) was 101.97 ± 8.68 µM. For the same compound, the “Dose BZL alone” value (same effect (Fa 0.852) as BZL 20.00 µM + LTD-CPH-CFZ 3.40 µM) was 117.55 ± 11.14 µM, the “Dose BZL alone” value (same effect (Fa 0.877) as BZL 20.00 µM + LTD-CPH-CFZ 8.50 µM) was 148.83 ± 4.56 µM and the “Dose BZL alone” value (same effect (Fa 0.881) as BZL 1.00 µM + LTD-CPH-CFZ 42.50 µM) was 157.01 ± 24.63 µM. The “Dose BZL alone” value (same effect (Fa 0.909) as BZL 20.00 µM + LTD-CPH-CFZ 17.00 µM) was 218.81 ± 31.25 µM, the “Dose BZL alone” value (same effect (Fa 0.933) as BZL 5.00 µM + LTD-CPH-CFZ 42.50 µM) was 315.46 ± 41.27 µM and the “Dose BZL alone” value (same effect (Fa 0.951) as BZL 10.00 µM + LTD-CPH-CFZ 42.50 µM) was 457.73 ± 30.35 µM. For the same compound, the “Dose BZL alone” value (same effect (Fa 0.981) as BZL 20.00 µM + LTD-CPH-CFZ 42.50 µM) was 1370.11 ± 265.72 µM.
